Reference: patent US6737383B1, “Herbicidal oxadiazolidines” (priority 1999, dated 2004)

Legend:
surinam grass = assay: Test B pre/postemergence surinam grass; type: in vivo, Brachiaria decumbens
In short: (§1)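 Test chemicals in a non-phytotoxic solvent mixture with surfactant were sprayed preemergence onto planted seeds and postemergence onto plants 2 to 18 cm tall (1- to 4-leaf stage). After twelve to sixteen days in a greenhouse, injury was visually rated against untreated controls from 0 (no effect) to 10 (complete control).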

purple nutsedge = assay: Test B pre/postemergence purple nutsedge; type: in vivo, Cyperus rotundus
In short: as §1

rice = assay: Test B flood test rice; type: in vivo, Oryza sativa
In short: (§2)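 Read-out is a visual response score from 0 (no effect) to 10 (complete control), assigned by comparison with untreated controls. Treatment was applied at the 2-leaf stage, and plants stayed in the greenhouse for twelve to sixteen days before scoring.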

giant foxtail = assay: Test B pre/postemergence giant foxtail; type: in vivo, Setaria faberii
In short: as §1

duck salad = assay: Test B flood test duck salad; type: in vivo, Heteranthera limosa
In short: as §2

cocklebur = assay: Test B pre/postemergence cocklebur; type: in vivo, Xanthium strumarium
In short: as §1

wheat = assay: Test B pre/postemergence wheat; type: in vivo, Triticum aestivum
In short: as §1

pigweed = assay: Test B pre/postemergence pigweed; type: in vivo, Amaranthus retroflexus
In short: as §1

bamyardgrass = assay: Test B flood test barnyardgrass; type: in vivo, Echinochloa crus-galli
In short: as §2

smallflower flatsedge = assay: Test B flood test smallflower flatsedge; type: in vivo, Cyperus difformis
In short: as §2

crabgrass = assay: Test B pre/postemergence crabgrass; type: in vivo, Digitaria sanguinalis
In short: as §1

soybean = assay: Test B pre/postemergence soybean; type: in vivo, Glycine max
In short: as §1

sugar beet = assay: Test B pre/postemergence sugar beet; type: in vivo, Beta vulgaris
In short: as §1

blackgrass = assay: Test B pre/postemergence blackgrass; type: in vivo, Alopecurus myosuroides
In short: as §1

corn = assay: Test B pre/postemergence corn; type: in vivo, Zea mays
In short: as §1

rape = assay: Test B pre/postemergence rape; type: in vivo, Brassica napus
In short: as §1

[1] = Preemergence, Rate 62 g/ha, scale of 0 to 10 where 0 is no effect and 10 is complete control
[2] = Preemergence, Rate 500 g/ha, scale of 0 to 10 where 0 is no effect and 10 is complete control
[3] = Rate 62 g/ha, Postemergence, scale of 0 to 10 where 0 is no effect and 10 is complete control
[4] = Rate 125 g/ha, Preemergence, scale of 0 to 10 where 0 is no effect and 10 is complete control
[5] = Rate 500 g/ha, Postemergence, scale 0 to 10, 0 no effect, 10 complete control
[6] = Preemergence, Rate 250 g/ha, scale of 0 to 10 where 0 is no effect and 10 is complete control
[7] = Rate 125 g/ha, Postemergence, scale 0 to 10
[8] = Rate 62 g/ha, headed Pre-emergence (flood test species), scale 0 to 10 (0 no effect, 10 complete control)
[9] = Rate 125 g/ha, Pre-emergence, flood test species, scale 0 to 10 where 0 is no effect and 10 is complete control
[10] = Rate 250 g/ha, Pre-emergence, flood-test species, scale 0 to 10, 0 is no effect, 10 is complete control
[11] = Rate 500 g/ha, Pre-emergence, flood test species, scale 0 to 10 (0 no effect, 10 complete control)

CCCCc1ccc(N(C(=O)n2oc(=O)n(-c3ccccc3C)c2=O)C(C)C)cc1 [Compound 229]
2: Soybean plant response rating (soybean; [5])
1: Plant response rating (0 to 10; 0 is no effect, 10 is complete control), Soybean (soybean; Rate 250 g/ha, Postemergence)
0: B. signalgrass plant response rating (surinam grass; [1]) | B. signalgrass plant response rating (surinam grass; Preemergence, Rate 250 g/ha, scale 0 to 10, 0 is no effect, 10 is complete control) | Plant response rating, B. signalgrass (surinam grass; [2]) | B. signalgrass plant response rating (surinam grass; [3]) | B. signalgrass plant response rating (surinam grass; Rate 125 g/ha, Postemergence, scale 0 (no effect) to 10 (complete control)) | B. signalgrass plant response rating (surinam grass; [4]) | Plant response rating (0 to 10; 0 is no effect, 10 is complete control), B. signalgrass (surinam grass; Rate 250 g/ha, Postemergence) | B. signalgrass plant response rating (surinam grass; [5]) | Nutsedge plant response rating (purple nutsedge; [1]) | Nutsedge plant response rating (purple nutsedge; [6]) | Plant response rating, Nutsedge (purple nutsedge; [2]) | Nutsedge plant response rating (purple nutsedge; [3]) | Nutsedge plant response rating (purple nutsedge; [7]) | Nutsedge plant response rating (purple nutsedge; [4]) | Plant response rating (0 to 10; 0 is no effect, 10 is complete control), Nutsedge (purple nutsedge; Rate 250 g/ha, Postemergence) | Nutsedge plant response rating (purple nutsedge; [5]) | Rice plant response rating (rice; [8]) | Rice plant response rating (rice; [9]) | Rice plant response rating (rice; [10]) | Rice plant response rating (rice; [11]) | Giant foxtail plant response rating (giant foxtail; [1]) | Giant foxtail plant response rating (giant foxtail; [6]) | Plant response rating, Giant foxtail (giant foxtail; [2]) | Giant foxtail plant response rating (giant foxtail; [3]) | Giant foxtail plant response rating (giant foxtail; [7]) | Giant foxtail plant response rating (giant foxtail; [4]) | Plant response rating (0 to 10; 0 is no effect, 10 is complete control), Giant foxtail (giant foxtail; Rate 250 g/ha, Postemergence) | Giant foxtail plant response rating (giant foxtail; [5]) | Ducksalad plant response rating (duck salad; [8]) | Ducksalad plant response rating (duck salad; [9]) | Ducksalad plant response rating (duck salad; [10]) | Ducksalad plant response rating (duck salad; [11]) | Cocklebur plant response rating (cocklebur; [1]) | Cocklebur plant response rating (cocklebur; [6]) | Plant response rating, Cocklebur (cocklebur; [2]) | Cocklebur plant response rating (cocklebur; [3]) | Cocklebur plant response rating (cocklebur; [7]) | Cocklebur plant response rating (cocklebur; [4]) | Plant response rating (0 to 10; 0 is no effect, 10 is complete control), Cocklebur (cocklebur; Rate 250 g/ha, Postemergence) | Cocklebur plant response rating (cocklebur; [5]) | Wheat plant response rating (wheat; [1]) | Wheat plant response rating (wheat; [6]) | Plant response rating, Wheat (wheat; [2]) | Wheat plant response rating (wheat; [3]) | Wheat plant response rating (wheat; [7]) | Wheat plant response rating (wheat; [4]) | Plant response rating (0 to 10; 0 is no effect, 10 is complete control), Wheat (wheat; Rate 250 g/ha, Postemergence) | Wheat plant response rating (wheat; [5]) | Redroot pigweed plant response rating (pigweed; [1]) | Redroot pigweed plant response rating (pigweed; [6]) | Plant response rating, Redroot pigweed (pigweed; [2]) | Redroot pigweed plant response rating (pigweed; [3]) | Redroot pigweed plant response rating (pigweed; [7]) | Redroot pigweed plant response rating (pigweed; [4]) | Plant response rating (0 to 10; 0 is no effect, 10 is complete control), Redroot pigweed (pigweed; Rate 250 g/ha, Postemergence) | Redroot pigweed plant response rating (pigweed; [5]) | Barnyardgrass plant response rating (bamyardgrass; [8]) | Barnyardgrass plant response rating (bamyardgrass; [9]) | Barnyardgrass plant response rating (bamyardgrass; [10]) | Barnyardgrass plant response rating (bamyardgrass; [11]) | S. Flatsedge plant response rating (smallflower flatsedge; [8]) | S. Flatsedge plant response rating (smallflower flatsedge; [9]) | S. Flatsedge plant response rating (smallflower flatsedge; [10]) | S. Flatsedge plant response rating (smallflower flatsedge; [11]) | Crabgrass plant response rating (crabgrass; [1]) | Crabgrass plant response rating (crabgrass; [6]) | Plant response rating, Crabgrass (crabgrass; [2]) | Crabgrass plant response rating (crabgrass; [3]) | Crabgrass plant response rating (crabgrass; [7]) | Crabgrass plant response rating (crabgrass; [4]) | Plant response rating (0 to 10; 0 is no effect, 10 is complete control), Crabgrass (crabgrass; Rate 250 g/ha, Postemergence) | Crabgrass plant response rating (crabgrass; [5]) | Soybean plant response rating (soybean; [1]) | Soybean plant response rating (soybean; [6]) | Plant response rating, Soybean (soybean; [2]) | Soybean plant response rating (soybean; [3]) | Soybean plant response rating (soybean; [7]) | Soybean plant response rating (soybean; [4]) | Sugarbeets plant response rating (sugar beet; [1]) | Sugarbeets plant response rating (sugar beet; [6]) | Plant response rating, Sugarbeets (sugar beet; [2]) | Sugarbeets plant response rating (sugar beet; [3]) | Sugarbeets plant response rating (sugar beet; [7]) | Sugarbeets plant response rating (sugar beet; [4]) | Plant response rating (0 to 10; 0 is no effect, 10 is complete control), Sugarbeets (sugar beet; Rate 250 g/ha, Postemergence) | Sugarbeets plant response rating (sugar beet; [5]) | Blackgrass plant response rating (blackgrass; [1]) | Blackgrass plant response rating (blackgrass; [6]) | Plant response rating, Blackgrass (blackgrass; [2]) | Blackgrass plant response rating (blackgrass; [3]) | Blackgrass plant response rating (blackgrass; [7]) | Blackgrass plant response rating (blackgrass; [4]) | Plant response rating (0 to 10; 0 is no effect, 10 is complete control), Blackgrass (blackgrass; Rate 250 g/ha, Postemergence) | Blackgrass plant response rating (blackgrass; [5]) | Corn plant response rating (corn; [1]) | Corn plant response rating (corn; [6]) | Plant response rating, Corn (corn; [2]) | Corn plant response rating (corn; [3]) | Corn plant response rating (corn; [7]) | Corn plant response rating (corn; [4]) | Plant response rating (0 to 10; 0 is no effect, 10 is complete control), Corn (corn; Rate 250 g/ha, Postemergence) | Corn plant response rating (corn; [5]) | Rape plant response rating (rape; [1]) | Rape plant response rating (rape; [6]) | Plant response rating, Rape (rape; [2]) | Rape plant response rating (rape; [3]) | Rape plant response rating (rape; [7]) | Rape plant response rating (rape; [4]) | Plant response rating (0 to 10; 0 is no effect, 10 is complete control), Rape (rape; Rate 250 g/ha, Postemergence) | Rape plant response rating (rape; [5])
